Measured values: US10407465B2, “Peptides enhancing neuronal outgrowth and application thereof” (Schweitzer Biotech Company Ltd., priority 2014, dated 2019)
Where a name gives a salt, the structure may show the parent alone. No end group written: not given here.

Key:
[1] = system: D-Galactose induced aging model rats; assay: Water maze learning, D-galactose induced aging; type: in vivo, Sprague-Dawley rats; details: D-galactose 150 mg/kg/day i.p. alone for 9 weeks
Protocol: (§1) A plastic circular pool 183 cm in diameter was filled with water (25±2° C.). A circular platform was placed at a specific location from the edge of the pool and submerged below the water surface. Water was made cloudy by adding toxic-free dye. Distinctive visual cues were set on the wall. For spatial learning, animals were subjected to 3 trials per day, with one trial early in the morning, one trial at noon, and another in the late afternoon. The training procedure lasted 4 days, and a total of 12 trials were given. The rats were positioned at different starting points spaced equally around the perimeter of the pool in random order. They had 60 seconds to swim in the pool. If a rat could not find the platform, it was guided to the platform and was allowed to remain there for 20 seconds. The time each animal took to reach the platform was recorded as the escape latency. A probe trial of 60 seconds was given on Day 5 to test their memory retention. The rats were placed in the pool with the platform removed, and the time they spent in each quadrant (Quadrants 1, 2, 3, and 4) was recorded. The longer a rat stayed in the target quadrant (quadrant 4), the better memory the rat had. At the end of the experiment, the rats were subjected to visible platform learning. […] The time the rats found the platform was recorded. […]

[2] = system: MPTP-mouse model of Parkinson's disease; assay: Rotarod performance test; type: in vivo, C57BL/6 male mice; details: MPTP 30 mg/kg i.p. alone; negative control 778.5 seconds; p<0.01
Protocol: C57BL/6 male mice at the age of 5 weeks were randomly divided into 3 groups and intraperitoneally injected with PBS (negative control), MPTP (30 mg/kg)(MPTP group), and C6 peptide (10.7 μg/kg) and MPTP (30 mg/kg)(C6+MPTP group), respectively. The injection volume was calculated based on the body weight of each mouse everyday. Mice of the C6+MPTP group were injected C6 peptide for 3 weeks prior to injection of C6 peptide and MPTP for 1 week, and then subjected to rotarod performance test.
Rotarod performance tests were conducted to measure the coordination of mice. Mice were placed on the rod and ran at 2 rpm constant speed for 2 minutes in order to adapt to the rod. After that, rod was started to accelerate to 20 rpm (within 5 minutes) and sustained for 15 minutes. The time (latency) at which each mouse fell off the rod was recorded.

[3] = system: Sco-induced amnesia animal model; assay: Novel object recognition learning, scopolamine-induced memory deficits; type: in vivo, Sprague-Dawley rats; details: scopolamine 1.5 mg/kg/day alone; vs time on left object; P>0.05
Protocol: During familiarization, rats were allowed to explore 2 identical objects in an open field box (90×70×60 cm) for 5 min. The criteria used for exploration were a distance less than 1.5 cm between the rat and the object or direct contact with the object. During the retention test given 3 hours and 24 hours later, the rats were returned to the same box, but one of the familiar objects was replaced with a novel object of approximately the same size. The time that each rat spent exploring the 2 objects during a 5-min period was recorded. The rats placed in the open field box without any objects for 5 min were assigned to the non-trained group.
Both C5 peptide and C6 peptide ameliorate scopolamine-induced memory deficits. […] Then, behavioral experiments were conducted, and the injection program with scopolamine continued through the experimentation. The injection volume was 1 μL/g of body weight. The scopolamine injection was performed 30 minutes before behavioral experiments every morning, and the C5 peptide or C6 peptide injection was conducted once daily at 5:00 PM 1 day prior. […] Three (3) hours, 8 hours and 24 hours after, a novel object (NO) replaced the RO.

[4] = system: Sco-induced amnesia animal model; assay: Water maze learning, scopolamine-induced memory impairment; type: in vivo, Sprague-Dawley rats; details: scopolamine 1.5 mg/kg/day i.p. alone; vs negative control; P<0.01
Protocol: as §1

[5] = system: Sco-induced amnesia animal model; assay: Step-down passive avoidance test, scopolamine-induced memory deficits; type: in vivo, Sprague-Dawley rats; details: scopolamine 1.5 mg/kg/day alone; 1 day after footshock; vs control
Protocol: Animals were familiar to the instrument 24 hours before training. Next day rats placed on the elevated platform situated in the center of the floor of the passive avoidance test box and the latency to stepping down recorded. On the third day of the experiment immediately after stepping down, animals received mild electric shock (3V, 3 seconds duration, D.C.) through the grid floor and then returned to their home cages. On the following day (as 24 hours retention interval) rats placed on the platform again while no electric shock was given to them. Latency to step down recorded. If the rat remained on the platform for the 5 minutes, it assigned a maximum score of 300 seconds.
Rats were randomly divided into negative control group, Scopolamine only group, (C5+Sco) group and (C6+Sco) group, and rats in the four groups were injected with vehicle (negative control group and scopolamine only group), C5 peptide (54 μg/kg/day, C5+Sco group), and C6 peptide (5.4 μg/kg/day, C6+Sco group), respectively, for 14 consecutive days. After that, rats in the 4 groups were intraperitoneally injected with vehicle (negative control group), vehicle and scopolamine (1.5 mg/kg/day)(scopolamine only group), C5 peptide (54 μg/kg/day) and scopolamine (1.5 mg/kg/day) (C5+Sco group), and C6 peptide (5.4 μg/kg/day) and scopolamine (1.5 mg/kg/day) (C6+Sco group), respectively, for 7 consecutive days. […]

[6] = system: embryonic hippocampal primary neurons; assay: Cell viability (MTT) assay for neurotoxicity; type: cell-based, Sprague-Dawley rats; details: 10^−3 M, 10^−6 M, 10^−9 M, 10^−12M for 24 hours from 1 DIV; p>0.05
Protocol: At the first day in vitro (1 DIV), embryonic hippocampal primary neurons were treated with 10^−3 M, 10^−6 M, 10^−9 M, 10^−12M C5 peptide or C6 peptide, respectively, for 24 hours, followed by cell viability assay.
Cell viability was evaluated by an MTT (3-(4,5-cimethylthiazol-2-yl)-2,5-diphenyl tetrazolium bromide) assay. Cells were incubated with an MTT reagent (0.5 mg/mL, Sigma-Aldrich, USA) at 37° C. for 1 hour. The MTT solution was removed, and DMSO was added to the wells shaken at room temperature for 1 hour. The amount of MTT formazan product was quantified by measuring its absorbance at 570 and 630 nm by using an ELISA plate reader (SpectraMax M2 Microplate Readers, Molecular Devices, Sunnyvale, Calif., USA).

[7] = system: embryonic hippocampal primary neurons; assay: Neuronal outgrowth assay with immunocytochemistry (anti-Tau, anti-MAP2, DAPI); type: cell-based, Sprague-Dawley rats; details: for lengths of the first and second order axon branches: p<0.01 or p<0.05; for axon outgrowth: L-form peptide 10^−9 M, treatment at 3 DIV for 3 days, vs PBS negative control
Protocol: In order to culture embryonic hippocampal primary neurons, pregnant Sprague-Dawley rats were purchased from the National Laboratory Center in Taiwan (Taipei, Taiwan). The hippocampal tissue from the embryos of the Sprague-Dawley rats (embryonic day 19, E19) was dissociated with enzyme and plated onto poly-L-lysine-coated coverslips with a minimal essential medium containing 5% calf serum, 5% horse serum, and 50 ng/mL insulin-transferrin-selenite (Sigma-Aldrich, St. Louis, Mo., USA). After plating, the medium was replaced with 2% of B27-neurobasal medium (Invitrogen, Carlsbad, Calif., USA) containing 0.5 mM glutamine and […]. Embryonic hippocampal primary neurons were incubated at 37° C., 5% CO2 for further experimental treatment.
Primary hippocampal neuron cultures at 3 days in vitro (at DIV3) were treated with 10^−9 M, 10^−12M, 10^−15 M C5 peptide (L-form), 10^−9 M, 10^−12M, 10^−15 M C6 peptide (L-form), 10^−9 M P1 peptide (L-form), 10^−9 M P2 peptide (L-form), 10^−9 M P3 peptide (L-form), 10^−9 M P4 peptide (L-form), 10^−9 M P5 peptide (L-form), 10^−9 M P6 peptide (L-form), 10^−9 M C5 peptide (D-form), and 10^−12 C6 peptide (D-form), respectively, for 3 days, followed by immunocytochemistry. Embryonic hippocampal primary neurons of negative control were treated with PBS. Each treatment condition was run in 3 replicates.
Cultured hippocampal neurons were fixed with 4% paraformaldehyde and permeablized with 0.1% Triton X-100 at room temperature (RT). Cultures were then incubated in the primary rabbit anti-Tau antibody (a selective marker for axons, Millipore, Mass., USA) and the primary mouse anti-MAP2 antibody (microtubule-associated protein-2, which is a selective marker for dendrites, Millipore) for 1 hour at RT. After wash, cells were incubated with Alexa Fluor® 488 goat anti-rabbit secondary antibody (green fluorescence, Abcam Plc., UK) and Alexa Fluor® 594 goat anti-mouse secondary antibody (red fluorescence, Abcam Plc.) for 1 hour at RT. Then, nuclei were stained with 4′,6-diamidino-2-phenylindole (DAPI, blue fluorescence, Vector Laboratories, USA). After that, coverslips were mounted on the cells, and images were obtained by using an Axio Observer D1 microscope (Zeiss, Jena, Germany) and analyzed by ImageJ software (Inage Processing and Analysis in Java, National Institutes of Health, USA). Neuronal process longer than 10 μm is defined as a neurite.
An axon extending from the cell body of a neuron is defined as a first order axon branch; an axon extending from a first order axon branch is defined as a second order axon branch, and an axon extending from a second order axon branch is defined as a third order axon branch, et cetera (FIG. 3A). Only axons longer than 10 μm are counted.

Row | Compound | lengths of the first and second order axon branches ([7]; 10^−9 M, vs negative control) | axon outgrowth [7] | also measured
1 | O=C[C@H](O)[C@@H](O)[C@@H](O)[C@H](O)CO [D-Galactose, D-(+)-galactose] |  |  | average escape latency in finding the hidden platform [1]: 53.06 s
2 | CN1CC=C(c2ccccc2)CC1 [MPTP, 1-methyl-4-phenyl-1,2,3,6-tetrahydropyridine] |  |  | average latency to fall [2]: 159.8 s
3 | CN1[C@@H]2C[C@@H](OC(=O)[C@H](CO)c3ccccc3)C[C@H]1[C@@H]1O[C@@H]12 [Sco, Scopolamine hydrochloride] |  |  | exploratory preference for the novel object (NO) [3]: no exploratory preference for the NO; escape latency in finding the hidden platform [4]: longer escape latency; stepping down (jumping error number) [5]: stepped down more
4 | NAIPQ [C5 peptide, NAIPQ] |  |  | neurotoxic effect (cell viability, MTT) [6]: no significant neurotoxic effect
5 | NFEPQ (Petide for enhancing neuronal outgrowth) [P1 peptide] | longer | enhanced axon outgrowth | 
6 | NIKPQ (Petide for enhancing neuronal outgrowth) [P3 peptide] | longer | enhanced axon outgrowth | 
7 | NLMPQ (Petide for enhancing neuronal outgrowth) [P4 peptide] | longer | enhanced axon outgrowth | 
8 | NMYPQ (Petide for enhancing neuronal outgrowth) [P2 peptide] | longer | enhanced axon outgrowth | 
9 | NPSPQ [C6 peptide, NPSPQ] |  |  | neurotoxic effect (cell viability, MTT) [6]: no significant neurotoxic effect
10 | NVAPQ (Petide for enhancing neuronal outgrowth) [P5 peptide] | longer | enhanced axon outgrowth | 
11 | NWLPQ (Petide for enhancing neuronal outgrowth) [P6 peptide] | longer | enhanced axon outgrowth | average number of second order axon branches ([7]; 10^−9 M, negative control 2.5, p<0.01): 4.2; lengths of the third order axon branches ([7]; 10^−9 M, vs negative control, p<0.05): significantly longer
